In patent publication US5147652A, “Autobiotics and their use in eliminating nonself cells in vivo” (priority 1990, dated 1992):

What was measured:
[1] = in vivo half life of C14-radiolabelled free and latentiated methylglyoxal; details: free; injected into mice
Procedure: With free alpha-ketoaldehydes, the half-life is about 30 minutes. […] Latentiation also protects host cells from the toxic effects of alpha-ketoaldehydes.

C. albicans = assay: Inhibition of C. albicans, yeast mixed in agar (B); assay type: cell-based; details: 30 μl test, 24 hrs incubation; mean of twenty assays
Procedure: Stock cultured C. albicans is used. The yeast isolated from clinical specimens was stock cultured (subcultured) on semisolid trypsoy agar plates. […] Thus, from the subculture(s), transfers were made every 48 hrs into SRB to keep the experimental strain available for assays. From the 24-48 hrs SRB cultures a loopful of turbid solutions was transferred and spread on either (a) trypsoy agar plates or (b) EBM agar plates which were fortified with horse and calf serum and incubated at 36 C for 24-48 hrs. […] Plate (a) was selected for growth inhibition assay(s) with ketoaldehydes.
One milliliter of SRB culture (24-48 hrs growth) was mixed with 10 ml trypsoy agar, warmed to 38 C and rapidly poured into sterile Petri dishes (7cm), spread evenly and allowed to solidify. The selected test compounds (in 30 μl total volume, as above) were placed in sensidisks (6mm dia, Whatman #17) on the infected agar surface. The plates were incubated for 24 hrs at 37 C. The extent of inhibition, clear zones around the sensi disks, were measured and recorded. In some cases contact photorecords were also made with the plates. (The dark zones on the photos are the inhibition (no growth) areas of C. albicans.
These assays were aimed at finding the variations of inhibition due to (i) the variable amount of yeast in (ii) a three dimensional area of the plates. Each result is the statistical mean of twenty assays on different batches of C. albicans.

[2] = system: blood coagulation (citrated human blood plasma); assay: Blood coagulation (i), ketoaldehyde kept 1-2 seconds before plasma added; assay type: biochemical; details: 1-2 seconds contact; for d % (clotting activity): control 22; for coagulation time: control 24; for clot: control hard
Procedure: (§1) 200 microliter thromboplastin (Ortho) was mixed with 10 microliter ketoaldehyde (KA) stock solution. Then 100 microliter citrated human blood plasma was added and the clot formation time (in seconds) was measured on a Fibrionometer. The effect of the ketoaldehyde on coagulation time was evaluated by comparing the clotting time of the KA treated plasma with the untreated control. The result (d%) was read from a special chart expressing the clotting activity.
(§2) All measurements were run in triplicates. The assay was run at 37 C (waterbath) in special tubes and all solutions were prewarmed.
(i) The plasminogen and ketoaldehyde were kept for
1-2 seconds before the blood plasma was added.

[3] = system: blood coagulation (normal plasma); assay: Blood coagulation (ii)(b), normal plasma; assay type: biochemical, human
Procedure: as §1, §2
(§3) (ii) The plasminogen and KA were incubated for
(§4) varying time before the blood plasma was added.
(b) with normal plasma: clotting time = 11. 7 sec

[4] = system: blood coagulation (plasma from a patient with prothrombin); assay: Blood coagulation (ii)(a), plasma from a patient with prothrombin; assay type: biochemical, human
Procedure: as §1, §2, §3, §4
(a) With plasma from a patient with prothrombin
(clotting time 26 sec d % = 19. "Normal" (healthy)

Sarcoma-180 cells = assay: Radiation enhancement in mice carrying ascitic Sarcoma-180 cells; assay type: in vivo
Excerpt: Ten minutes after the injection the mice were irradiated with a gamma source (612 RAD equivalent of 400 R total body radiation; calculated lethaldose:LD-50/30 days). The treatment was repeated 3 times 4 days apart. […] One day after the last radiation, the animals were sacrificed, the ascitic fluid was collected and the malignant cells were counted.

Candida albicans = assay: Effect on proliferation of Candida albicans, disk on agar surface (A); assay type: cell-based; details: 24 hours (*)
Procedure: Stock solutions of the following test compounds were dissolved in physiological saline. However DOV was dissolved in water.
C. albicans isolated from clinical specimens were density grown in SubbaRow's broth at 35 C. A loopful of yeast suspension was evenly spread on the surface of Muller-Hilton agar plates (7cm diameter) with a sterile cotton applicator and incubated for 12 hours. The test compounds were placed on the surface of the sensidisks (Whatmann No. 17 paper, 6mm diameter) in a volume of 5, 10, 20, and 50 μliter of stock solutions and made up a final volume of 50 μliter with saline. The plates then were placed and kept at 37 C for 24 hours (*) and 48 hours (**) when the diameters of the inhibitory rings were recorded. Photographs were also taken of plates.

[5] = system: blood coagulation (whole blood); assay: Blood coagulation (c), trial assay with whole blood; assay type: biochemical; details: control 14.9 sec
Procedure: as §1, §2
(c) A trial assay where blood plasma was replaced

Penicillum notatum = assay: Inhibition of proliferation of molds, disk assay; assay type: cell-based; details: 40 hrs
Procedure: (§5) (1) Stock solutions in 26% 2 popanediol:
(§6) (3) Assay: The microorganisms were grown in Saburand's dextrose agar (Scott) at 35 C for stock cultures. For assay the spores were plated on Mueller-Hilton agar plates (7cm dia). The test compounds were applied to the plates on sensi disks (6 mm dia, Whatmann #17 paper) in volumes of 10, 20, 30, 40 microliter made up to 40 plating volume of microliter with the solvent. The plates were incubated at room temperature and in the dark for 40 hrs. The diameter of the inhibition ring around the sensi disks were measured.

Aspergillus niger = assay: Inhibition of proliferation of molds, disk assay; assay type: cell-based; details: 40 hrs
Procedure: as §5, §6

[6] = assay type: physicochemical
cell division = details: Stein and co-workers; cited from earlier work

CC(=O)C=O [MG, methylglyoxal]
half life [1]: about 30 minutes | inhibition diameters (C. albicans): 6.0 mm | d % (clotting activity) [2]: 20% | coagulation time [2]: 25 s | clot [2]: hard | clotting time ([3]; incubation time 5 seconds): 12.9 s | d% ([3]; incubation time 5 seconds): 96% | clotting time ([3]; incubation time 60 seconds): 14.9 s | d% ([3]; incubation time 60 seconds): 55% | clotting time ([3]; incubation time 129 seconds): 15.4 s | d% ([3]; incubation time 129 seconds): 53% | clotting time ([3]; incubation time 240 seconds): 19.0 s | d% ([3]; incubation time 240 seconds): 35% | clotting time ([3]; incubation time 360 seconds): 26.9 s | d% ([3]; incubation time 360 seconds): 26% | clotting time ([3]; incubation time 600 seconds): > 167.0 s | clotting time ([4]; incubation time 30 seconds): 39 s | d% ([4]; incubation time 30 seconds): 15% | clotting time ([4]; incubation time 60 seconds): 32 s | d% ([4]; incubation time 60 seconds): 13% | clotting time ([4]; incubation time 130 seconds): 39 s | d% ([4]; incubation time 130 seconds): < 10% | clotting time ([4]; incubation time 190 seconds): 41 s | clotting time ([4]; incubation time 300 seconds): 91.8 s | P % (promotion) (Sarcoma-180 cells; MG alone, without radiation): 4.7% | TC % (Sarcoma-180 cells; MG alone, without radiation): 104.7% | TC % (Sarcoma-180 cells; RAD + MG, 120 mg/kg, 612 RAD, 3 times): 7.7% | inhibition diameters (Candida albicans; 20 μliter): 8 mm | inhibition diameters (Candida albicans; 50 μliter): 10 mm | clotting time ([5]; incubation time 70): 16.5 s | clotting time ([5]; incubation time 150): 19.4 s | clotting time ([5]; incubation time 180): 20.0 s | clotting time ([5]; incubation time 240): 22.0 s | clotting time ([5]; incubation time 360): 24.0 s | diameter of inhibition ring (Penicillum notatum; 30 microliter): 8 | diameter of inhibition ring (Penicillum notatum; 40 microliter): 10 | diameter of inhibition ring (Aspergillus niger; 30 microliter): 7 | diameter of inhibition ring (Aspergillus niger; 40 microliter): 9

O=CC(=O)c1ccccc1 [PhG, phenylglyoxal]
solubility in organic solvents ([6]; chloroform, methanol, ethanol): soluble in chloroform methanol and ethanol | solubility limit of stock solution ([6]; physiological saline stock): limit solubility | solubility in water ([6]; water): sparingly soluble in water | d % (clotting activity) [2]: 11% | coagulation time [2]: 35 s | clot [2]: hard | effect of reaction with arginine-rich surface proteins on cells (cell division): cells that can not divide, and which become leaky and die | clotting time ([3]; incubation time 120 seconds): 19.5 s | d% ([3]; incubation time 120 seconds): 33% | inhibition diameters (Candida albicans; 20 μliter): 5 mm | inhibition diameters (Candida albicans; 50 μliter): 8 mm
